A word on the EC50: it is the concentration needed to bring the measured effect to its halfway point.

We go through four molecules from patent publication US20260224475A1, “MULTI-COMPONENT INTRAVAGINAL RING” (priority 2023, published 2026).

Data set [1] relates to C. trachomatis. Nature of the data set: Bactericidal activity against C. trachomatis (inclusion count in HeLa cells). The conditions noted are these: absence or presence of 2% VF and 20% SF, 2 hours at room temperature; LA 80 mM. The class given is cell-based. As for the experimental part: C. trachomatis was incubated with actives ±2% VF and 20% SF for 2 hours at room temperature. The mixtures were serially diluted 1/10 in SPG solution, applied on HeLa cells in triplicate. Images were acquired using the Cytation-5 instrument and the inclusion count was analyzed using the Gen5 software in the Cytation-5. Control conditions included HeLa cells challenged with C. trachomatis in the absence of the actives. (FIG. 15).

In data set [2] the test system is HSV-2 G. Nature of the data set: HSV-2 plaque reduction assay. In kind it is cell-based. To be noted: single API, 30 min pre-incubation with HSV-2 G in saline, read-out: EC50 (95% confidence interval). As for the experimental part: The HSV-2 plaque reduction assay was performed to test the anti-HSV-2 activity of ZA, CS and LA. […] Virus controls containing HSV-2 in saline were incubated under the same conditions. After incubation all dilutions and controls were diluted 1/10 in DMEM and tittered using the plaque assay. FIG. 12 and Table 10 show the results. […] The data represented the average of two independent experiments. In Table 10, the molar ratio of CS:LA:ZA in ZS-CA-LA is 1:20:100.
Background: Plaque reduction counts the foci of infection that form in a cell layer.

The test system of data set [3] is HIV-1BaL. Nature of the data set: MAGI assay, anti-HIV-1BaL activity in TZMbl cells. The conditions noted are these: single API; 30 min pre-incubation with virus in saline, 10-fold dilution, 72 h on TZMbl cells; read-out: EC50 (95% confidence interval). The class given is cell-based.
Procedure: MAGI assay was performed to test anti-HIV-1BaL activity. […] Virus controls containing HIV-1BaL in saline were incubated under the same conditions. Following incubation, API-HIV-1BaL mixture was diluted 10-fold and added to TZMbl cells. Following 72-hour incubation, the cells were washed and stained with X-gal and fixed. […] Infected cells were counted using CTL instrument.
Data set [4] concerns Ectocervical explants. As for the experimental part:
Kruskal-Wallis test with Dunn's multiple comparison) (FIG. 22).
In FIG. 23, ectocervical explants were incubated with the selected concentrations of the APIs for 24 hr in the presence or absence of 5% VF. Explants were fixed, paraffin embedded, sectioned and stained with H&E.
Ectocervical explants were exposed to the APIs 24 hr in the presence or absence of 5% VF. Supernatants were collected and analyzed for pro-inflammatory cytokines.

In data set [5] the test system is VEC-100 tissue. The conditions noted are these: 100 mM.
Procedure: VEC-100 tissues were incubated with APIs for 24 hr. Tissue viability was analyzed by MTT and LDH assay and TEER measurements were recorded.
Data set [6] has as its system human sperm. The data set can be described thus: Sperm motility assay. In kind it is cell-based. The conditions noted are these: for Average Motility Reduction: average of nine 3-API checkerboard combinations containing the named API at this dose; for Average CI: average of nine 3-API combinations. The procedure:
Fresh human sperm samples were obtained the day of the experiment. 100 mM stock solutions of each API in saline were prepared in advance. Immediately prior to the experiment, solutions of each API concentration to be tested were prepared via dilution with saline. These include solutions of multiple APIs added together.
The effect of each API on sperm motility and viability was determined using human donors, adding 200 μL of API's diluted in sterile saline to 50 μL of fresh semen. For motility assessments, the incubation mixture was incubated for 5 minutes and then 100 sperm were counted under the microscope by two andrology-trained researchers and classified as either non-motile or motile. If motile, the sperm were further classified according to the nature of their motility—from barely twitching with no forward progression to progressively motile. Each experiment was repeated at least three times on different days using different donors to account for natural variations in sperm properties.
The % motility for each experimental condition was calculated by normalizing the fraction of motile sperm in the experimental groups to the fraction of motile sperm in the saline control treated group, setting 100% to the average fraction of motile sperm from control experiments. For example, the % motility at concentration c would be:
Once % motility data was obtained, the synergy was measured with Compusyn software. See Chou et al., CompuSyn for drug combinations: PC software and user's guide: a computer program for quantitation of synergism and antagonism in drug combinations, and the determination of IC50. ED50 and LD50 values, which is incorporated herein by reference in its entirety. Motility data for individual API concentration as well as all double and triple API solutions was entered into the program and analyzed according to the Chou-Talalay Median Effect Principle.
Next, the synergy between each of the APIs was tested to determine if there were any synergistic effects between compounds which would allow for reduced dosages. Each of the three possible two-compound combinations were tested, followed by the combination of all three APIs. […] Synergy was calculated with Compusyn using the Chou-Talalay Median Effect approach and represented as a CI (Combination Index) value. […] The smaller the CI value for a combination, the greater the degree of synergy.
After the two-API combinations were complete, the full three-way synergy was tested using a 3×3×3 checkerboard style assay to test all 27 permutations of three chosen concentrations for each of the three APIs.
From the resulting data, the estimated effects of each of the individual API were isolated by averaging % reduction in motility and the CI values for each of the API concentrations tested. With this 3×3×3 checkerboard assay, each single concentration was tested against nine permutations of the other two APIs, meaning that each cell in Table 4 represents the average of the nine combinations involving the specified API concentration.
Synergy was calculated utilizing the Chou-Talalay median effect principle and Compusyn software which quantifies synergy as a combination index (CI) for each combination. A CI<1 signifies synergy, a CI>1 signifies antagonism and a CI=1 signifies a purely additive effect.

The subject of data set [7] is G. vaginalis. Nature of the data set: Minimal cidal concentration (MCC). In kind it is cell-based. The conditions noted are these: 30 minutes exposure; >3 log decrease in CFU considered cidal.
The test system of data set [8] is N. gonorrhoeae. Nature of the data set: Minimal cidal concentration (MCC). In kind it is cell-based.
In data set [9] the test system is VEC-100 tissue. Nature of the data set: VEC-100 tissue, repeated exposure (1 hr daily for 5 days; viability, TEER). In kind it is cell-based.
For data set [10] the following is noted: 10 days exposure.
Data set [11] deals with human sperm. Nature of the data set: Sperm-Cervical Mucus Penetration Test (SMPT) in methylcellulose. In kind it is cell-based.
Setting [12] is: Dose 1 (CS 2.95, ZA 4.75, LA 10.26 mM).
Setting [13] is: Dose 2 (CS 3.94, ZA 6.34, LA 13.70 mM).
The mark [14] stands for this setting: Dose 3 (CS 5.90, ZA 9.51, LA 20.54 mM).

Like-named read-outs stand apart in the source and are kept apart here. Where only a bound is given, the exact number is not on record here.

`O=S(=O)([O-])[O-].[Cu+2]` [CS, copper sulfate]: in data set [1], the “inhibition of C. trachomatis infection (in words)” value is recorded as “significantly inhibited infection”. Also, the EC50 is 0.009 mM in [2] and 0.183 mM in data set [3].
Take `CC(=O)[O-].CC(=O)[O-].[Zn+2]` [ZA, zinc acetate]: the “Ectocervix: single exposure (MTT, Histology, CC) 24 h, 5% VF” value in data set [4] (100 mM) was “No Tox”. For the same molecule, in data set [4] (100 mM), the “Ectocervix: single exposure (MTT, Histology, CC) 24 h, No VF” value is given as “No Tox”. Further, the “VEC-100: Single exposure (MTT, TEER and LDH) 24 h, No VF” value in [5] is “No Tox”. The figures for the “Average Motility Reduction” value in [6] (setting [12]), in data set [6] (setting [13]) and in [6] (setting [14]) were 63.47%, 73.77% and 80.09%, respectively. For the same molecule, the results for the “Average CI” value in [6] (setting [12]), in data set [6] (setting [13]) and in [6] (setting [14]) were 0.48, 0.47 and 0.45, respectively. For the same molecule, the EC50 in data set [6] (single API (CS/ZA/LA study), saline, 5 min with fresh semen, % motility vs saline control) came to 19 mM; in [2], 0.78 mM; in data set [3], 1.96 mM. The EC90 in data set [6] (single API (CS/ZA/LA study), saline, 5 min with fresh semen, % motility vs saline control, read-out: EC90) is 33.2 mM. In addition, the MCC is more than 100 mM in data set [7] and 100 mM in data set [8] (30 minutes exposure, >3 log decrease in CFU considered cidal). In addition, the “MCC 10% AB Serum” value in data set [8] came to 100 mM. In addition, the “MCC 30% AB Serum” value in data set [8] is on record as more than 100 mM. In addition, in data set [8], the “MCC No Serum” value was 100 mM.
Consider `CC(O)C(=O)[O-].CC(O)C(=O)[O-].[Zn+2]` (centres unmarked) [ZL, zinc lactate], for which the “VEC-100 single exposure (MTT, TEER and LDH) day 1-5 24 h No VF” value in data set [9] (10 mM) and in [9] (21 mM) was “No Tox” in each case. Besides, in data set [9] (multiple treatments), the “Non-toxic concentrations in VEC-100 model TEER and LDH 5 daily exposures” value is recorded as 21 mM. Besides, the “Ectocervix: single exposure (MTT, Histology, CC) 24 h, 5% VF” value in data set [4] (25 mM), in [4] (50 mM) and in data set [4] (100 mM) was “No Tox” in each case. Also, the “Ectocervix: single exposure (MTT, Histology, CC) 24 h, No VF” value in [4] (25 mM), in data set [4] (50 mM) and in data set [4] (100 mM) was “No Tox” in each case. Also, the “Non-toxic concentrations in ectocervix MTT and histology 24 hr” value in [4] (single treatment) was 100 mM. Further, the “Non-toxic concentrations based on rat vaginal irritation study 10 days exposure” value in data set [10] is 50 mM. Besides, the EC90 in [11] (Table 16, concentration of the named API in the CS + ZL + LA combination (cf. Table 7), read-out: Anti-Sperm concentrations Sperm-mucus penetration (EC90)) was 5 mM; in data set [11] (Table 18, concentration of the named API in the CS + ZL + LA combination, read-out: Anti-Sperm concentrations Sperm-mucus penetration (EC90)) it was 5 mM; in data set [11] (single API, 1% methylcellulose, 30 minutes, read-out: Inhibition of Sperm Mucus Penetration EC90 [95% CI] (Migration of vanguard sperm in methyl cellulose spiked with API)) it was 13 mM; in data set [6] (Table 16, concentration of the named API in the CS + ZL + LA combination (cf. Table 7), read-out: Anti-Sperm concentrations Total motility (EC90)), 22 mM; in [6] (Table 18, concentration of the named API in the CS + ZL + LA combination, read-out: Anti-Sperm concentrations Total motility (EC90)), 22 mM; in data set [6] (single API (CS/ZL/LA study), read-out: EC90) it was 94 mM. Moreover, the EC90 in data set [6] (single API, read-out: Reduction of Sperm Motility EC90 [95% CI] (concentration to inhibit total sperm motility)) was found to be 94 mM. Also, the “MIC (concentration to inhibit progressive sperm motility)” value in data set [6] (single API) is 30 mM. Moreover, the EC50 in [6] (single API (CS/ZL/LA study)) was found to be 45 mM. The “inhibition of C. trachomatis infection (in words)” value in data set [1] is “exception”. For the same molecule, the “MCC 10% AB Serum” value in [8] is reported as more than 100 mM. Moreover, the “MCC 30% AB Serum” value in data set [8] was more than 100 mM. Moreover, the “MCC No Serum” value in data set [8] was more than 100 mM. Besides, in data set [8] (± human serum), the “inhibitory activity (in words)” value is reported as “not inhibitory”.
Triton [reference compound]: the “VEC-100 single exposure (MTT, TEER and LDH) day 1-5 24 h No VF” value in data set [9] (control, concentration not given) is “Tox”.
